In ChEMBL document CHEMBL1201862, “PubChem BioAssay data set” (2004):
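Five compound concentrations were applied to cells in 96-well plates for 48 hours; endpoints were derived by simple linear interpolation of the resulting dose-response curve. The concentration for 50% growth inhibition is given as GI50.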 The source made the active and inactive calls. Rule as the data show it: active = GI50 up to about 1.1 µM and inactive = higher.

Experiments:
Assay in all cases: NCI anticancer screen, dose series, 48 h
M14 = test system: M14
SF-539 = test system: SF-539
SK-MEL-28 = test system: SK-MEL-28
SNB-75 = test system: SNB-75
SK-OV-3 = test system: SK-OV-3
A549 = test system: A549
U-251 = test system: U-251
SNB-78 = test system: SNB-78
RPMI-8226 = test system: RPMI-8226
SW-620 = test system: SW-620
NCI-H226 = test system: NCI-H226
ACHN = test system: ACHN
XF498 = test system: XF498
HCT-116 = test system: HCT-116
RXF 393 = test system: RXF 393
SF-295 = test system: SF-295
COLO 205 = test system: COLO 205
OVCAR-8 = test system: OVCAR-8
SN12C = test system: SN12C
LOX IMVI = test system: LOX IMVI
SNB-19 = test system: SNB-19
SR = test system: SR
KM-20L2 = test system: KM-20L2
NCI-H460 = test system: NCI-H460
SK-MEL-5 = test system: SK-MEL-5
DLD-1 = test system: DLD-1
NCI-H23 = test system: NCI-H23
IGROV-1 = test system: IGROV-1
MOLT-4 = test system: MOLT-4
HOP-92 = test system: HOP-92
HT-29 = test system: HT-29
UACC-62 = test system: UACC-62
UACC-257 = test system: UACC-257
LXFL 529 = test system: LXFL 529
HL-60 = test system: HL-60
UO-31 = test system: UO-31
HCT-15 = test system: HCT-15
KM12 = test system: KM12
OVCAR-5 = test system: OVCAR-5
A498 = test system: A498
NCI-H522 = test system: NCI-H522
RXF 631 = test system: RXF 631
TK-10 = test system: TK-10
CCRF-CEM = test system: CCRF-CEM
786-0 = test system: 786-0
EKVX = test system: EKVX
SF-268 = test system: SF-268
K562 = test system: K562
CAKI-1 = test system: CAKI-1
SK-MEL-2 = test system: SK-MEL-2
OVCAR-3 = test system: OVCAR-3
DMS-273 = test system: DMS-273
HOP-62 = test system: HOP-62
HOP-18 = test system: HOP-18
M19-MEL = test system: M19-MEL
OVCAR-4 = test system: OVCAR-4
Malme-3M = test system: Malme-3M
HCC 2998 = test system: HCC 2998
DMS-114 = test system: DMS-114

COC(=O)c1ccccc1/N=C/c1ccc(N(CCC#N)S(=O)(=O)c2ccccc2)cc1
GI50 (M14): > 100 µM (inactive)
GI50 (SF-539): > 100 µM (inactive)
GI50 (SK-MEL-28): > 100 µM (inactive)
GI50 (SNB-75): > 100 µM (inactive)
GI50 (SK-OV-3): > 100 µM (inactive)
GI50 (A549): > 100 µM (inactive)
GI50 (U-251): > 100 µM (inactive)
GI50 (SNB-78): > 100 µM (inactive)
GI50 (RPMI-8226): > 100 µM (inactive)
GI50 (SW-620): > 100 µM (inactive)
GI50 (NCI-H226): > 100 µM (inactive)
GI50 (ACHN): > 100 µM (inactive)
GI50 (XF498): > 100 µM (inactive)
GI50 (HCT-116): > 100 µM (inactive)
GI50 (RXF 393): > 100 µM (inactive)
GI50 (SF-295): > 100 µM (inactive)
GI50 (COLO 205): > 100 µM (inactive)
GI50 (OVCAR-8): > 100 µM (inactive)
GI50 (SN12C): > 100 µM (inactive)
GI50 (LOX IMVI): > 100 µM (inactive)
GI50 (SNB-19): > 100 µM (inactive)
GI50 (SR): > 100 µM (inactive)
GI50 (KM-20L2): > 100 µM (inactive)
GI50 (NCI-H460): > 100 µM (inactive)
GI50 (SK-MEL-5): > 100 µM (inactive)
GI50 (DLD-1): > 100 µM (inactive)
GI50 (NCI-H23): > 100 µM (inactive)
GI50 (IGROV-1): > 100 µM (inactive)
GI50 (MOLT-4): > 100 µM (inactive)
GI50 (HOP-92): > 100 µM (inactive)
GI50 (HT-29): > 100 µM (inactive)
GI50 (UACC-62): > 100 µM (inactive)
GI50 (UACC-257): > 100 µM (inactive)
GI50 (LXFL 529): > 100 µM (inactive)
GI50 (HL-60): > 100 µM (inactive)
GI50 (UO-31): > 100 µM (inactive)
GI50 (HCT-15): > 100 µM
GI50 (KM12): > 100 µM (inactive)
GI50 (OVCAR-5): > 100 µM (inactive)
GI50 (A498): > 100 µM (inactive)
GI50 (NCI-H522): > 100 µM (inactive)
GI50 (RXF 631): > 100 µM (inactive)
GI50 (TK-10): > 100 µM (inactive)
GI50 (CCRF-CEM): > 100 µM (inactive)
GI50 (786-0): > 100 µM (inactive)
GI50 (EKVX): > 100 µM (inactive)
GI50 (SF-268): > 100 µM (inactive)
GI50 (K562): > 100 µM (inactive)
GI50 (CAKI-1): > 100 µM (inactive)
GI50 (SK-MEL-2): > 100 µM (inactive)
GI50 (OVCAR-3): > 100 µM (inactive)
GI50 (DMS-273): > 100 µM (inactive)
GI50 (HOP-62): > 100 µM (inactive)
GI50 (HOP-18): > 100 µM (inactive)
GI50 (M19-MEL): > 100 µM (inactive)
GI50 (OVCAR-4): > 100 µM (inactive)
GI50 (Malme-3M): > 100 µM (inactive)

Nc1cc2c3c(cccc3c1)C(=O)N(CCN1CCN(CCN3C(=O)c4cccc5cc(N)cc(c45)C3=O)CC1)C2=O
GI50 (M14): 98.9 µM (inactive)
GI50 (SF-539): > 100 µM (inactive)
GI50 (SK-MEL-28): > 100 µM (inactive)
GI50 (SNB-75): > 100 µM (inactive)
GI50 (SK-OV-3): > 100 µM (inactive)
GI50 (A549): 46.3 µM (inactive)
GI50 (U-251): > 100 µM (inactive)
GI50 (RPMI-8226): > 100 µM (inactive)
GI50 (SW-620): 38.8 µM (inactive)
GI50 (NCI-H226): 31.5 µM (inactive)
GI50 (ACHN): > 100 µM (inactive)
GI50 (XF498): > 100 µM (inactive)
GI50 (HCT-116): 67.6 µM (inactive)
GI50 (RXF 393): > 100 µM (inactive)
GI50 (SF-295): 97.1 µM (inactive)
GI50 (COLO 205): > 100 µM (inactive)
GI50 (OVCAR-8): 74.3 µM (inactive)
GI50 (SN12C): > 100 µM (inactive)
GI50 (SNB-19): 76.2 µM (inactive)
GI50 (KM-20L2): > 100 µM (inactive)
GI50 (NCI-H460): 33.3 µM (inactive)
GI50 (HCC 2998): > 100 µM (inactive)
GI50 (SK-MEL-5): > 100 µM (inactive)
GI50 (NCI-H23): > 100 µM (inactive)
GI50 (IGROV-1): > 100 µM (inactive)
GI50 (MOLT-4): 25.3 µM (inactive)
GI50 (HOP-92): > 100 µM (inactive)
GI50 (HT-29): 32 µM (inactive)
GI50 (UACC-62): > 100 µM (inactive)
GI50 (UACC-257): > 100 µM (inactive)
GI50 (LXFL 529): 67 µM (inactive)
GI50 (HL-60): > 100 µM (inactive)
GI50 (UO-31): 37.9 µM (inactive)
GI50 (HCT-15): > 100 µM
GI50 (KM12): > 100 µM (inactive)
GI50 (OVCAR-5): > 100 µM (inactive)
GI50 (A498): > 100 µM (inactive)
GI50 (NCI-H522): > 100 µM (inactive)
GI50 (RXF 631): > 100 µM (inactive)
GI50 (TK-10): > 100 µM (inactive)
GI50 (CCRF-CEM): > 100 µM (inactive)
GI50 (786-0): > 100 µM (inactive)
GI50 (EKVX): > 100 µM (inactive)
GI50 (SF-268): 91.2 µM (inactive)
GI50 (K562): > 100 µM (inactive)
GI50 (CAKI-1): > 100 µM (inactive)
GI50 (SK-MEL-2): > 100 µM (inactive)
GI50 (OVCAR-3): > 100 µM (inactive)
GI50 (DMS-273): > 100 µM (inactive)
GI50 (HOP-62): > 100 µM (inactive)
GI50 (HOP-18): > 100 µM (inactive)
GI50 (M19-MEL): > 100 µM (inactive)
GI50 (DMS-114): > 100 µM (inactive)
GI50 (OVCAR-4): > 100 µM (inactive)
GI50 (Malme-3M): > 100 µM (inactive)

CC(=O)OC1COC(n2c(=S)n(-c3ccccc3)c(=O)c3ccccc32)C(OC(C)=O)C1OC(C)=O (stereo not drawn)
GI50 (M14): 21.3 µM (inactive)
GI50 (SF-539): > 100 µM (inactive)
GI50 (SK-MEL-28): > 100 µM (inactive)
GI50 (SNB-75): > 100 µM (inactive)
GI50 (SK-OV-3): > 100 µM (inactive)
GI50 (A549): 39.9 µM (inactive)
GI50 (U-251): 78.5 µM (inactive)
GI50 (SNB-78): > 100 µM (inactive)
GI50 (RPMI-8226): 22.5 µM (inactive)
GI50 (SW-620): 44.6 µM (inactive)
GI50 (NCI-H226): > 100 µM (inactive)
GI50 (ACHN): 25.2 µM (inactive)
GI50 (XF498): 74.6 µM (inactive)
GI50 (HCT-116): 47.9 µM (inactive)
GI50 (RXF 393): 55.3 µM (inactive)
GI50 (SF-295): 19.9 µM (inactive)
GI50 (COLO 205): 99.1 µM (inactive)
GI50 (OVCAR-8): 72.8 µM (inactive)
GI50 (SN12C): > 100 µM (inactive)
GI50 (LOX IMVI): 21.4 µM (inactive)
GI50 (SNB-19): > 100 µM (inactive)
GI50 (KM-20L2): 4.29 µM (inactive)
GI50 (NCI-H460): 66.1 µM (inactive)
GI50 (HCC 2998): 58.2 µM (inactive)
GI50 (SK-MEL-5): 98.2 µM (inactive)
GI50 (DLD-1): 56.5 µM (inactive)
GI50 (NCI-H23): 70 µM (inactive)
GI50 (IGROV-1): 67.3 µM (inactive)
GI50 (MOLT-4): 21 µM (inactive)
GI50 (HOP-92): 37.1 µM (inactive)
GI50 (HT-29): 85.3 µM (inactive)
GI50 (UACC-62): 4.05 µM (inactive)
GI50 (UACC-257): > 100 µM (inactive)
GI50 (LXFL 529): 8.55 µM (inactive)
GI50 (HL-60): 20.4 µM (inactive)
GI50 (UO-31): 48.9 µM (inactive)
GI50 (HCT-15): 6 µM
GI50 (KM12): 29.2 µM (inactive)
GI50 (OVCAR-5): > 100 µM (inactive)
GI50 (A498): > 100 µM (inactive)
GI50 (NCI-H522): 35 µM (inactive)
GI50 (RXF 631): 47.9 µM (inactive)
GI50 (CCRF-CEM): 32.7 µM (inactive)
GI50 (786-0): 78.9 µM (inactive)
GI50 (EKVX): > 100 µM (inactive)
GI50 (SF-268): 89.9 µM (inactive)
GI50 (K562): 2.51 µM (inactive)
GI50 (CAKI-1): 2.94 µM (inactive)
GI50 (SK-MEL-2): 13.1 µM (inactive)
GI50 (OVCAR-3): 74.6 µM (inactive)
GI50 (DMS-273): 19.2 µM (inactive)
GI50 (HOP-62): > 100 µM (inactive)
GI50 (HOP-18): > 100 µM (inactive)
GI50 (DMS-114): 40.6 µM (inactive)
GI50 (OVCAR-4): 26.8 µM (inactive)
GI50 (Malme-3M): > 100 µM (inactive)
